Experimental data taken from ChEMBL document CHEMBL3885861, “Open TG-GATES”.

Species on record: Rattus norvegicus
Experiment: Open TG-GATES - Regimen: Single
Format: toxicity, organism-based, Sprague-Dawley
Set-up: regimen Single, gender Male, age 6 weeks
Conditions: in vivo, po, 0 mg/kg, route gavage, dose level Control; for APTT / Bas / Eos / Fbg / Hb / Ht / Lym / MCHC / MCV / Mono / Neu / PT / Plat / RBC / Ret / WBC: tissue Blood; for KIDNEY_L / KIDNEY_R / KIDNEY_TOTAL: tissue Kidney; for LIVER: tissue Liver; for ALP / ALT / AST / BUN / CRE / Ca / Cl / DBIL / GLC / IP / K / LDH / Na / PL / RALB / TBIL / TC / TG / TP / gamma-GTP: tissue Plasma

## C1CCC(C(CC2CCCCN2)C2CCCCC2)CC1 (centres undefined) [PERHEXILINE]
3 h
  TERMINAL_BW: 206.4 g
  APTT: 21.3 s
  Bas: 0%
  Eos: 0.6%
  Fbg: 324 mg/dL
  Hb: 13.5 g/dL
  Ht: 39.5%
  Lym: 80.6%
  MCHC: 34%
  MCV: 62.3 fL
  Mono: 1.4%
  Neu: 16.8%
  PT: 16 s
  Plat: 117.8 x10_4/uL
  RBC: 634.6 x10_4/ul
  Ret: 6.3%
  WBC: 77.4 x10_2/uL
  KIDNEY_L: 0.9 g
  KIDNEY_R: 0.9 g
  KIDNEY_TOTAL: 1.8 g
  LIVER: 9.2 g
  ALP: 1964.4 IU/L
  ALT: 42.6 IU/L
  AST: 70.8 IU/L
  BUN: 14.8 mg/dL
  CRE: 0.1 mg/dL
  Ca: 10.9 mg/dL
  Cl: 106.8 meq/L
  DBIL: 0.002 mg/dL
  GLC: 192.6 mg/dL
  IP: 7.8 mg/dL
  K: 4.2 meq/L
  LDH: 147.6 IU/L
  Na: 140.4 meq/L
  PL: 144.4 mg/dL
  RALB: 3.2 g/dL
  TBIL: 0.014 mg/dL
  TC: 79.8 mg/dL
  TG: 63.4 mg/dL
  TP: 5.7 g/dL
  gamma-GTP: 0.8 IU/L
6 h
  TERMINAL_BW: 210.1 g
  APTT: 20.9 s
  Bas: 0%
  Eos: 0.4%
  Fbg: 317.4 mg/dL
  Hb: 13.2 g/dL
  Ht: 39.3%
  Lym: 79.8%
  MCHC: 33.6%
  MCV: 65.6 fL
  Mono: 2.2%
  Neu: 16.6%
  PT: 15.7 s
  Plat: 130.2 x10_4/uL
  RBC: 599.8 x10_4/ul
  Ret: 7.4%
  WBC: 75.5 x10_2/uL
  KIDNEY_L: 1 g
  KIDNEY_R: 1 g
  KIDNEY_TOTAL: 1.9 g
  LIVER: 9.3 g
  ALP: 1510 IU/L
  ALT: 37.8 IU/L
  AST: 67.8 IU/L
  BUN: 11.4 mg/dL
  CRE: 0.1 mg/dL
  Ca: 10.8 mg/dL
  Cl: 105.2 meq/L
  DBIL: 0 mg/dL
  GLC: 178.8 mg/dL
  IP: 9.8 mg/dL
  K: 4 meq/L
  LDH: 239.2 IU/L
  Na: 140.4 meq/L
  PL: 147.8 mg/dL
  RALB: 3 g/dL
  TBIL: 0.018 mg/dL
  TC: 81.2 mg/dL
  TG: 77.4 mg/dL
  TP: 5.6 g/dL
  gamma-GTP: 1 IU/L
9 h
  TERMINAL_BW: 206.4 g
  APTT: 21.8 s
  Bas: 0%
  Eos: 0.6%
  Fbg: 319 mg/dL
  Hb: 13.2 g/dL
  Ht: 39.2%
  Lym: 75.8%
  MCHC: 33.7%
  MCV: 64.6 fL
  Mono: 1.8%
  Neu: 20.4%
  PT: 15.6 s
  Plat: 131 x10_4/uL
  RBC: 606.6 x10_4/ul
  Ret: 7.3%
  WBC: 89.6 x10_2/uL
  KIDNEY_L: 0.9 g
  KIDNEY_R: 1 g
  KIDNEY_TOTAL: 1.9 g
  LIVER: 9.2 g
  ALP: 1422.6 IU/L
  ALT: 33.8 IU/L
  AST: 62.2 IU/L
  BUN: 11.4 mg/dL
  CRE: 0.1 mg/dL
  Ca: 10.9 mg/dL
  Cl: 105.6 meq/L
  DBIL: 0 mg/dL
  GLC: 193.8 mg/dL
  IP: 9.4 mg/dL
  K: 3.9 meq/L
  LDH: 196.4 IU/L
  Na: 139.6 meq/L
  PL: 135.6 mg/dL
  RALB: 3 g/dL
  TBIL: 0.012 mg/dL
  TC: 76.4 mg/dL
  TG: 70 mg/dL
  TP: 5.6 g/dL
  gamma-GTP: 0.8 IU/L
24 h
  TERMINAL_BW: 228.6 g
  APTT: 20.7 s
  Bas: 0%
  Eos: 0.8%
  Fbg: 315.6 mg/dL
  Hb: 13.1 g/dL
  Ht: 39.4%
  Lym: 74.8%
  MCHC: 33.3%
  MCV: 65.2 fL
  Mono: 2.4%
  Neu: 21.2%
  PT: 16 s
  Plat: 120.5 x10_4/uL
  RBC: 604.2 x10_4/ul
  Ret: 7.2%
  WBC: 89.3 x10_2/uL
  KIDNEY_L: 1 g
  KIDNEY_R: 1 g
  KIDNEY_TOTAL: 2.1 g
  LIVER: 11.2 g
  ALP: 1688.8 IU/L
  ALT: 42.6 IU/L
  AST: 66.4 IU/L
  BUN: 16.8 mg/dL
  CRE: 0.1 mg/dL
  Ca: 11 mg/dL
  Cl: 105.4 meq/L
  DBIL: 0 mg/dL
  GLC: 196.6 mg/dL
  IP: 7.1 mg/dL
  K: 4.3 meq/L
  LDH: 177.6 IU/L
  Na: 141.6 meq/L
  PL: 154.2 mg/dL
  RALB: 3.2 g/dL
  TBIL: 0.014 mg/dL
  TC: 76.8 mg/dL
  TG: 149.4 mg/dL
  TP: 5.7 g/dL
  gamma-GTP: 1 IU/L
